In article PMC5648786, “Characterization of a dual function macrocyclase enables design and use of efficient macrocyclization substrates” (Nature Communications, 2017):
No end group written: not given here.

How the values were obtained:
[1] = target: T1, GmPOPB (Galerina marginata, UniProt H2E7Q8); conditions: macrocyclization; 50 mM Tris pH 8.0, 50 mM NaCl, 10 mM DTT, room temperature; GmPOPB 1 μM for 13mer and 14mer, 50 nM for C6S, 20 nM others; duplicates, fit ± SEM
Method: Comparison between distinct substrates was performed in 50 mM Tris pH 8.0, 50 mM NaCl, 10 mM DTT with varying concentrations of substrates at room temperature. All reactions were performed in duplicates. Reactions were started by adding GmPOPB (50 nM for GmAMA1_C6S, 1 μM for the 13mer and 14mer, and 20 nM for other substrates) to the assay mixture containing buffer and peptide. Reactions were quenched at several time points by adding 50 μL reaction mixture to 20 μL 6% TFA. Reactants were separated from products for quantification by injecting 50 μL of each quenched time point mix onto a ZORBAX SB-C18, 5 µm, 9.4 × 50 mm (Agilent) column connected to an Agilent LC-MS (G6130B Single Quad, Agilent Technologies). Reactants were separated from products using a gradient from H2O containing 0.1% TFA or 0.1% formic acid and 5% acetonitrile to 50% acetonitrile, at 1.5 ml/min for 8 min. […] The sum of product+substrate was assumed equal to the total initial amount of substrate, product converted from % to concentration. This value was divided by concentration of enzyme present to yield v/E t (min^−1). […] For progress curves with the 35mer substrate, measurements were triplicate and quantification relied on ion counts from mass spectrometry. […] Authentic cyclic peptide was quantified by UV absorbance. […] Kinetic data were fitted to a Michaelis–Menten equation using GraphPad Prism, and values reported are average and standard error of the mean.

[2] = target: T1, GmPOPB; assay: Peptide products formed after 1 h and 16 h reaction of truncated substrates with GmPOPB; type: biochemical; set-up: His-tag (TEV-cleavable) (cleaved yes); made in house; host or cells: E. coli BL21(DE3); conditions: 1 μM GmPOPB, 200 μM peptide substrate, performed twice
Method: The peptides are colored as Fig. 1c with N-terminus at top. Error bars are standard error of the mean from the average of at least two independent measurements (Supplementary Table 3). c Michaelis–Menten curves show both the 13mer and 14mer are substrates for the enzyme. Fitted values for K d, K m, and k cat are shown in Supplementary Tables 2 and 3. Error bars are standard error of the mean from duplicate measurements. d Cyclic peptide produced after 1 h reaction with 1 μM GmPOPB and 200 μM of various peptide substrates. e Peptide produced after 16 h of reaction with 1 μM GmPOPB and 200 μM of various peptide substrates. Peptide sequences are colored as Fig. 1b and detailed in Supplementary Fig. 1
Comparison between distinct substrates was performed in 50 mM Tris pH 8.0, 50 mM NaCl, 10 mM DTT with varying concentrations of substrates at room temperature. All reactions were performed in duplicates. […] Reactants were separated from products for quantification by injecting 50 μL of each quenched time point mix onto a ZORBAX SB-C18, 5 µm, 9.4 × 50 mm (Agilent) column connected to an Agilent LC-MS (G6130B Single Quad, Agilent Technologies). […] For progress curves with the 35mer substrate, measurements were triplicate and quantification relied on ion counts from mass spectrometry. […] Authentic cyclic peptide was quantified by UV absorbance. […]

[3] = target: T2, GmPOPB-S577A (inactive mutant) (Galerina marginata, UniProt H2E7Q8, S577A); assay: Isothermal titration calorimetry, peptide binding to inactive mutant GmPOPB_S577A; conditions: ITC, 20 °C
T2 construct: His-tag (TEV-cleavable) (cleaved yes); made in house; host or cells: E. coli BL21(DE3)
T2 sequence (H2E7Q8 1-730 S577A): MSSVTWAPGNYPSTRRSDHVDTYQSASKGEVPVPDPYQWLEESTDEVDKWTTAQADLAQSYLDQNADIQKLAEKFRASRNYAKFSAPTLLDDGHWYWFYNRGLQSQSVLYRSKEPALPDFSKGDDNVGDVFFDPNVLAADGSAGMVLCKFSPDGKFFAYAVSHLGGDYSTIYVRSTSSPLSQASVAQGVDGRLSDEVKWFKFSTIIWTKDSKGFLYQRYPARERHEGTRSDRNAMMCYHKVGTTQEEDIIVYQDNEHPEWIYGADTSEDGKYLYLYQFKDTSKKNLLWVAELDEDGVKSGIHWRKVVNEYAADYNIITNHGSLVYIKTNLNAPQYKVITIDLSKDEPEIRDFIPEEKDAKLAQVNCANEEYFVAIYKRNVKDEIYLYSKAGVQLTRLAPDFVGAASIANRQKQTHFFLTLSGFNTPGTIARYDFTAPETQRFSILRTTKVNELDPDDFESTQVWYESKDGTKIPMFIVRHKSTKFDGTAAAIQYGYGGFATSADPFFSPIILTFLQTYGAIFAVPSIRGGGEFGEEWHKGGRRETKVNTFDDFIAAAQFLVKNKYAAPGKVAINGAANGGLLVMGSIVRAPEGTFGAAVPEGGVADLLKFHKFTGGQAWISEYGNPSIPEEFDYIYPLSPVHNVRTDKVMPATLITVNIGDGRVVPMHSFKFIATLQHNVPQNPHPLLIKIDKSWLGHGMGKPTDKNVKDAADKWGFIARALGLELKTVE

[4] = target: T3, GmPOPB-S577A (Galerina marginata, UniProt H2E7Q8, S577A); assay: crystal structure; conditions: both partners purified
T3 sequence: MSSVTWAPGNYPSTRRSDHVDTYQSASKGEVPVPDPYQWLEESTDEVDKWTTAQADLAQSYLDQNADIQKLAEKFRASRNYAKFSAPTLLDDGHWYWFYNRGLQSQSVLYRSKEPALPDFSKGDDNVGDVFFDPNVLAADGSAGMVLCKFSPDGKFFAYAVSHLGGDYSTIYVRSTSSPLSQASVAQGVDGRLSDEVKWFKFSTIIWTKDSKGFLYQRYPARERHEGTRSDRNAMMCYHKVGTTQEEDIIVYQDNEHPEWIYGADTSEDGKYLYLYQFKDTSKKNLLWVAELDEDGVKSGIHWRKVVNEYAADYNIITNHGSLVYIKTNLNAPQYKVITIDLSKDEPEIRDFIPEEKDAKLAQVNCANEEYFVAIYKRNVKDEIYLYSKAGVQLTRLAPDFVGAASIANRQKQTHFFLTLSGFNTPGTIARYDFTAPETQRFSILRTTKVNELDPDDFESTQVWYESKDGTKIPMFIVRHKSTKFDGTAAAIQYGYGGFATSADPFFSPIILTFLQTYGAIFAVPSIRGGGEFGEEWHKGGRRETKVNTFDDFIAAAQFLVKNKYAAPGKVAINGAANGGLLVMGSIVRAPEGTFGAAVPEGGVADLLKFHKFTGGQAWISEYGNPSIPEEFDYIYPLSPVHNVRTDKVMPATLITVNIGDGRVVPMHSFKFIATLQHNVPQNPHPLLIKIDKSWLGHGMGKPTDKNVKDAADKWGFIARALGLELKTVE

[5] = target: T4, GmPOPB-D661A (Galerina marginata, UniProt H2E7Q8 1-730, D661A); assay: crystal structure; conditions: both partners purified
T4 sequence: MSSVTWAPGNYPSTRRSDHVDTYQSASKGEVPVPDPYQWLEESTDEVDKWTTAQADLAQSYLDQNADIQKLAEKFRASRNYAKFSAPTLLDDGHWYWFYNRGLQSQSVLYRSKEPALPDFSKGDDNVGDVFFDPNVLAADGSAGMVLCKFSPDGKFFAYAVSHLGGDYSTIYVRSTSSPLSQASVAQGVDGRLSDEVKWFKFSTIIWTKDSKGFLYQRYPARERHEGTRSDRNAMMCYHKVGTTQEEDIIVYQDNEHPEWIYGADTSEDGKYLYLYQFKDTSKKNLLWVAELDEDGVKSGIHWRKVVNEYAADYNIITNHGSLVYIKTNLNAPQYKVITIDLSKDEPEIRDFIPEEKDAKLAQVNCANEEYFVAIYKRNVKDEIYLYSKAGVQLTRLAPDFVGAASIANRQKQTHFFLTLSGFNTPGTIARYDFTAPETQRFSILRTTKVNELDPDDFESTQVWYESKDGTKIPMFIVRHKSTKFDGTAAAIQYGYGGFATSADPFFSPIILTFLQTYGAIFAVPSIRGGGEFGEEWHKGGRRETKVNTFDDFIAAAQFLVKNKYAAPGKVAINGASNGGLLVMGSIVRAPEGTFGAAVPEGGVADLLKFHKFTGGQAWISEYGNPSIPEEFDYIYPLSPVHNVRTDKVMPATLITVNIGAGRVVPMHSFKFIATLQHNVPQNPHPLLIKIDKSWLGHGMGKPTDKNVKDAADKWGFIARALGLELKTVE

Molecule | kcat [1] [s⁻¹] | Linear product (hydrolysis instead of macrocyclization) after 16 h of reaction [2] | -TΔS ([3]; GmPOPB_S577A, average ± SEM) [kcal/mol] | ΔG ([3]; GmPOPB_S577A, average ± SEM) [kcal/mol] | ΔH ([3]; GmPOPB_S577A, average ± SEM) [kcal/mol] | Kd ([3]; peptide titrated into GmPOPB_S577A, 50 mM Tris pH 8.0, 50 mM NaCl, 10 mM DTT, single-site model, n fixed at 1.0, average ± SEM of at least 2 measurements) [µM] | binding result [4] | binding result [5]
IWGIGCNPWTAEHV [14mer] | 0.00967 ± 0.00167 | less linear product | -5.8 ± 0.2 | -6.7 ± 0.1 | -0.9 ± 0.2 | 9.5 ± 1.1 | – | –
IWGIGCNPWTAEHVDQTLASGNDIC (also called 25mer peptide) [25mer substrate (core, linker and recognition tail)] | – | – | – | – | – | – | binds | binds
